According to publication PMC8767159, “Multiparameter Optimization of Trypanocidal Cruzain Inhibitors With In Vivo Activity and Favorable Pharmacokinetics” (Frontiers in Pharmacology, 2022):
Where two headings read alike, the source gives them in different places.

What was measured:
[1] = In vitro metabolic stability in mouse liver microsomes; assay type: in vitro ADME; details: mouse, liver microsomes
Description: Isolated mouse (BD Gentest, Bedford, MA) and human liver microsomes (XenoTech, Kansas City, KS) ([Plant, 2004]) were added at a final concentration of 0.25 mg/ml to a solution containing 40 mM dibasic potassium phosphate and 10 mM monobasic potassium phosphate. Stock solutions of compounds at 5 mM were prepared in 100% DMSO. A 50:50 quenching solution of acetonitrile (ACN) and methanol (MeOH) was prepared. An NADPH solution was prepared at 10 mM. The preparations containing the microsomes were added to each well of the incubation plate (450 µl), which was then heated to 37°C for 10 min. The compounds were added to the respective wells of the test plate (2 µl). Then, 300 µl of the microsome preparation was added to each well of the test plate. The test plate was heated under gentle rotation for 5 min at 37°C. Next, 90 µl of the mixture contained in the test plate was added to the incubation plate, making a final volume of 540 µl. Samples were collected at the following incubation times: 0, 5, 10, 15, 20, and 30 min. To the 0 min sample plate, quenching solution (180 µl), NADPH (6 µl), and the incubation plate mixture (54 µl) were added to each well. The sample plate was then sealed, homogenized, and stored at 4°C. Then, 54 µl of the NADPH solution was added to the incubation plate, which was homogenized. Before the collection of each sample at the established times, 45 µl of the quenching solution was added to each well of the corresponding sample plates. After reaching the incubation times, 60 µl of the mixture contained in the incubation plate was added to the corresponding sample plates. The sample plates were then sealed and stored at 4°C. After the collection of the last sample (30 min), all sample plates were centrifuged at 3,800 rpm for 30 min. The supernatant from each well was collected and transferred to clean plates for mass spectrometry. Five to 10 µl of each sample was injected into an AB Sciex Triple Quad 5500 LC-MS/MS instrument.
For the biotransformation experiments and analysis of metabolites in microsomes, an Ultra-High-Pressure Liquid Chromatography instrument (UHPLC, Thermo Accela, Waltham, MA) ([Spaggiari et al., 2014]) connected to an automatic sample injector and a 1250 series pump was used. The UHPLC system was connected to a Thermo Fisher (Waltham, MA) LTQ Orbitrap mass spectrometer. For all other analyses, an AB Sciex Triple Quad 5500 coupled to a UHPLC equipped with a UV 1290 diode detector (Agilent Technologies, Santa Clara, CA) and a CTC PAL self-collecting system (LEAP Technologies, Carrboro, NC) was used. Q1 MS positive ion mode (300–500 Da) was used to detect the ions of the parent compounds. The UV detector was operated in spectral mode (250–280 nm). A Hypersil Gold C18 (2.1 mm × 100 mm, 1.9 µm, Thermo Fisher) HPLC column was used. The mobile phases were solvent A (0.1% formic acid in water) and solvent B (0.1% formic acid in ACN). The flow was adjusted to 0.55 ml/min, and the injection volume was adjusted to […]. The gradient started with 1% solvent B for 0.4 min, reached 40% (solvent B) in 2.3 min and 95% (solvent B) in 0.67 min, was maintained for 0.5 min, and returned to the initial condition of 1%. This condition was maintained for 1 min before injection of the next sample. The peak area ratio (peak area of the test compounds/peak area of the control compounds) was converted to the percentage of remaining compound, with the 0 min time point ratio set to 100%. T½ and CLint were calculated from the percentage of remaining compound versus the incubation time. From the resulting function, the slope (k) was determined. The equations T1/2 (min) = ln(2)/k and CLint in vitro (μL/min/mg) = k*1000/0.25 were used to determine T½ and CLint.

[2] = Experimental distribution coefficient (eLogD) by LC retention time; assay type: physicochemical; details: for chromatographic logD: C18 column (LC retention time)
Description: For the eLogD assays ([Waring, 2010]), each compound (5 μl) from a 5 mM stock solution was diluted in 245 μl of a solution containing buffers A (5% MeOH, 10 mM ammonium acetate, pH 7.4) and B (100% MeOH, pH 7.4) (50:50). Nine control compounds with known eLogD and column retention times (acyclovir, atenolol, antipyrine, fluconazole, metoprolol, carbamazepine, ketoconazole, tolnaftate, and amiodarone; eLogD values ranging from −1.86 to 6.1) were subjected to LC-MS/MS in triplicate before and after the analysis of the test compounds. Retention times were recorded for each control and test compound in a C18 column. The retention time of each control compound was plotted against the respective eLogD values described in the literature ([Lombardo et al., 2002]; [Lombardo et al., 2004]; [Alelyunas et al., 2010]). The resulting linear equation (y = mx + b) was used to calculate the eLogD values of the test compounds, in which x is the retention time in minutes and y is the eLogD value.

[3] = Table S5, CLint/fu, read-out: CLint_u (L/h/kg) Mouse (converted)
[4] = Table S5, read-out: CLint (L/h/kg) Mouse (converted)
[5] = Table 5, CLint/fu, read-out: CLint_u (L/h/kg) mouse (converted)
[6] = Table 5, read-out: CLint (L/h/kg) mouse (converted)

| chromatographic logD ([2]; pH 7.4, Table S5) | Compound | CLint scaled at 5 µM [1, 3] | CLint scaled at 5 µM [1, 4] | chromatographic logD ([2]; pH 7.4, Table 3, pH 7.4) | eLogD ([2]; Table S5) | CLint scaled at 5 µM [1, 5] | CLint scaled at 5 µM [1, 6] | chromatographic logD ([2]; pH 7.4, Table 5) | eLogD ([2]; Table 3, pH 7.4) |
| --- | --- | --- | --- | --- | --- | --- | --- | --- | --- |
| – | COc1ccc2cc(OCC(=O)NCCc3nc4ccccc4[nH]3)ccc2c1 [Compound 12] | 1610 L/h/kg | 177 L/h/kg | 3.89 | 3.89 | – | – | – | – |
| – | O=C(COc1ccccc1)NCCc1nc2ccccc2n1CCCOc1ccccc1 [Compound 24] | 1850 L/h/kg | 501 L/h/kg | 4.45 | 4.45 | – | – | – | – |
| – | O=C(COc1ccccc1[N+](=O)[O-])NCCc1nc2ccccc2[nH]1 [Compound 32] | – | – | – | – | 808 L/h/kg | 526 L/h/kg | 3.6 | – |
| 4.04 | O=C(COc1ccccc1)NCCc1nc2ccccc2n1-c1ccccc1 [Compound 30] | 1130 L/h/kg | 713 L/h/kg | – | – | – | – | – | – |
| – | O=C(CCc1ccccc1Br)NCCc1nc2ccccc2[nH]1 [Compound 36] | – | – | – | – | 935 L/h/kg | 705 L/h/kg | 3.8 | – |
| 2.23 | O=C(COc1cccc(NC(=O)CCCO)c1)NCCc1nc2ccccc2[nH]1 [Compound 7] | 8.19 L/h/kg | 8.19 L/h/kg | – | – | – | – | – | – |
| – | Cc1ccccc1OCC(=O)NCCc1nc2ccccc2[nH]1 [Compound 17] | – | – | – | – | 392 L/h/kg | 300 L/h/kg | 3.6 | – |
| – | O=C(COc1ccccc1)NCCc1nc2ccccc2n1Cc1ccccc1 [Compound 26] | 1010 L/h/kg | 620 L/h/kg | 4.06 | 4.06 | – | – | – | – |
| 1.31 | O=C(COc1ccc2c(C(=O)O)cccc2c1)NCCc1nc2ccccc2[nH]1 [Compound 15] | 12.9 L/h/kg | 12.9 L/h/kg | – | – | – | – | – | – |
| – | CC(=O)Nc1cccc(OCC(=O)NCCc2nc3ccccc3[nH]2)c1 [Compound 3] | 10.6 L/h/kg | 10.6 L/h/kg | 2.26 | 2.26 | – | – | – | – |
| – | Nc1cccc(OCC(=O)NCCc2nc3ccccc3[nH]2)c1 [Compound 9] | 22.8 L/h/kg | 22.7 L/h/kg | 1.88 | 1.88 | – | – | – | – |
| – | CC(=O)Nc1ccc(OCC(=O)NCCc2nc3ccccc3[nH]2)cc1 [Compound 2] | < 4.43 L/h/kg | < 4.43 L/h/kg | 1.92 | 1.92 | – | – | – | – |
| – | O=C(COc1ccccc1)NCCc1nc2ccccc2[nH]1 [Compound 1] | 72.1 L/h/kg | 72.1 L/h/kg | 2.9 | 2.90 | – | – | – | – |
| 4.5 | O=C(COc1ccccc1)NCCc1nc2ccccc2n1CCOc1ccccc1Br [Compound 19] | 2580 L/h/kg | 305 L/h/kg | – | – | – | – | – | – |
| 4.24 | O=C(COc1ccccc1)NCCc1nc2ccccc2n1CCOCc1ccccc1 [Compound 21] | 1790 L/h/kg | 847 L/h/kg | – | – | – | – | – | – |
| – | Cn1c(CCNC(=O)COc2ccccc2)nc2ccccc21 [Compound 25] | 123 L/h/kg | 122 L/h/kg | 2.93 | 2.93 | – | – | – | – |
| 1.59 | O=C(COc1ccc(N2C(=O)CCC2=O)cc1)NCCc1nc2ccccc2[nH]1 [Compound 4] | 20.9 L/h/kg | 20.8 L/h/kg | – | – | – | – | – | – |

| chromatographic logD ([2]; pH 7.4, Table S5) | Compound | CLint scaled at 5 µM [1, 3] | CLint scaled at 5 µM [1, 4] | chromatographic logD ([2]; pH 7.4, Table 3, pH 7.4) | eLogD ([2]; Table S5) | CLint scaled at 5 µM [1, 5] | CLint scaled at 5 µM [1, 6] | chromatographic logD ([2]; pH 7.4, Table 5) | eLogD ([2]; Table 3, pH 7.4) |
| --- | --- | --- | --- | --- | --- | --- | --- | --- | --- |
| – | O=C(COc1ccccc1Br)NCCc1nc2ccccc2[nH]1 [Compound 18] | – | – | – | – | 334 L/h/kg | 191 L/h/kg | 3.9 | – |
| – | O=C(COc1ccc2ccc(O)cc2c1)NCCc1nc2ccccc2[nH]1 [Compound 11] | 68.5 L/h/kg | 45.7 L/h/kg | – | 3.37 | – | – | – | 2.26 |
| 4.81 | Cc1ccccc1OCC(=O)NCCc1nc2ccccc2n1CCOc1ccccc1Br [Compound 22] | – | 487 L/h/kg | – | – | – | – | – | – |
| – | O=C(COc1cccc([N+](=O)[O-])c1)NCCc1nc2ccccc2[nH]1 [Compound 8] | 67.5 L/h/kg | 67.5 L/h/kg | 2.98 | 2.98 | – | – | – | – |
| – | C=CCCn1c(CCNC(=O)COc2ccccc2)nc2ccccc21 [Compound 27] | 756 L/h/kg | 650 L/h/kg | 3.75 | 3.75 | – | – | – | – |
| – | O=C(COc1ccc2ccccc2c1Br)NCCc1nc2ccccc2[nH]1 [Compound 34] | – | – | – | – | – | 607 L/h/kg | 4.4 | – |
| – | N#Cc1ccccc1OCC(=O)NCCc1nc2ccccc2[nH]1 [Compound 31] | – | – | – | – | 87.9 L/h/kg | 74.6 L/h/kg | 2.6 | – |
| 3.13 | COCCn1c(CCNC(=O)COc2ccccc2)nc2ccccc21 [Compound 29] | 235 L/h/kg | 235 L/h/kg | – | – | – | – | – | – |
| 1.8 | O=C(COc1cccc(N2C(=O)CCC2=O)c1)NCCc1nc2ccccc2[nH]1 [Compound 6] | 217 L/h/kg | 217 L/h/kg | – | – | – | – | – | – |
| – | NC(=O)Cn1c(CCNC(=O)COc2ccccc2)nc2ccccc21 [Compound 28] | 5.43 L/h/kg | 5.34 L/h/kg | 2.16 | 2.16 | – | – | – | – |
| 4.69 | O=C(COc1ccccc1Br)NCCc1nc2ccccc2n1CCOc1ccccc1Br [Compound 23] | – | 300 L/h/kg | – | – | – | – | – | – |
| – | O=C(COc1ccc2cc(O)ccc2c1)NCCc1nc2ccccc2[nH]1 [Compound 10] | 32.3 L/h/kg | 26.4 L/h/kg | 3.17 | 3.17 | – | – | – | – |
| – | O=C(COc1ccc2ccccc2c1)NCCc1nc2ccccc2[nH]1 [Compound 35] | – | – | – | – | 1170 L/h/kg | 565 L/h/kg | 3.9 | – |
| – | O=C(COc1ccc(Br)cc1)NCCc1nc2ccccc2[nH]1 [Compound 33] | – | – | – | – | 193 L/h/kg | 161 L/h/kg | 2.8 | – |
| – | Cc1ccccc1OCC(=O)NCCc1nc2ccccc2o1 [Compound 37] | – | – | – | – | 874 L/h/kg | 745 L/h/kg | 3.9 | – |
| – | O=C(COc1ccccc1)NCCc1nc2ccccc2n1CCOc1ccccc1 [Compound 20] | 1200 L/h/kg | 489 L/h/kg | 4.24 | 4.24 | – | – | – | – |
| – | C=CCCn1c(CCNC(=O)COc2ccccc2Cl)nc2ccccc21 [Compound 38] | – | – | – | – | 2030 L/h/kg | 934 L/h/kg | 4.1 | – |

| Compound | chromatographic logD ([2]; pH 7.4, Table S5) | CLint scaled at 5 µM [1, 3] | CLint scaled at 5 µM [1, 4] | chromatographic logD ([2]; pH 7.4, Table 3, pH 7.4) | eLogD ([2]; Table S5) | CLint scaled at 5 µM [1, 5] | CLint scaled at 5 µM [1, 6] | chromatographic logD ([2]; pH 7.4, Table 5) | eLogD ([2]; Table 3, pH 7.4) |
| --- | --- | --- | --- | --- | --- | --- | --- | --- | --- |
| O=C(COc1ccc(NC(=O)CCCO)cc1)NCCc1nc2ccccc2[nH]1 [Compound 5] | 1.83 | 4.51 L/h/kg | 4.43 L/h/kg | – | – | – | – | – | – |
